Assay results published in PMC8151276, “An Integrated Approach toward NanoBRET Tracers for Analysis of GPCR Ligand Engagement” (Molecules, 2021).

Target: T1, C3AR1 (Homo sapiens, UniProt Q16581)
T1 construct: purchased Promega (in-house HiBiT-GPCR construct library, NanoBRET)
T1 sequence (Q16581 1-482): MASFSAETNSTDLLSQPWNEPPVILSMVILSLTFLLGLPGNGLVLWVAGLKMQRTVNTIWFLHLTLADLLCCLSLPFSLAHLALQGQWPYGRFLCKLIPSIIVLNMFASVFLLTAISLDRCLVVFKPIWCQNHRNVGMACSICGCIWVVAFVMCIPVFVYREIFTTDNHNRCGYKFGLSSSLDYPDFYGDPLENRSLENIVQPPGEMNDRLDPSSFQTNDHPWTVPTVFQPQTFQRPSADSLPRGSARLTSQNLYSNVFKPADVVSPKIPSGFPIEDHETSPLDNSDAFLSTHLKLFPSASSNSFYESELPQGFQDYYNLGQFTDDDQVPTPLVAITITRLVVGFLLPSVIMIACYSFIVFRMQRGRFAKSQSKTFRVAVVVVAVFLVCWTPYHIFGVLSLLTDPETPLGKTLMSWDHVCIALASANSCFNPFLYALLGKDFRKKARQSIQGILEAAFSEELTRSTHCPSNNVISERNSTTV
Assay: NanoBRET screen HiBiT-C3AR1 in HEK293
Type: binding
Method: Each tracer candidate was screened across the entire library of HiBiT-GPCR constructs using NanoBRET as the detection modality. As depicted in Figure 4A, the specificity of interactions was evaluated through decrease in BRET due to competitive displacement of a bound tracer by excess parental compound. Each tracer was analyzed for binding to each HiBiT-GPCR fusion in the absence and in the presence of competing parental compound. Briefly, HEK293 cells were transfected with HiBiT-GPCR constructs diluted into promoterless DNA to reduce expression and maximize translocation to the cell surface. Each tracer candidate was then screened at concentrations of 1 μM and 0.1 μM across cells expressing these fusions. Cells were treated for 1.5 h with tracer either alone or in the presence of 20 μM competing parental compound (i.e., control). BRET was measured upon addition of purified LgBiT and subsequent complementation with HiBiT genetically fused to a GPCR. The specificity of interactions was assessed through a decrease in BRET signal due to competitive displacement of the bound tracer. To further gauge the robustness of these interactions, the fold response over the control (i.e., BRETtracer/BRETcontrol) was calculated. We chose a 1.5-fold response, which translates to ≥7-fold signal over noise as the minimal threshold required to score an interaction as positive. […]. Below we highlight the screening results obtained for our exemplary fluorescent tracers based on Clozapine, Amitriptyline and AZD1283.
HiBiT-GPCR DNA constructs were diluted in 10 mM Tris pH 8 to a final concentration of 0.01 μg/μL, arrayed in 96-well plates and stored at −20 °C. For transfection, HEK293 cells were suspended in Opti-MEM (without phenol red) supplemented with 2% fetal bovine serum (Seradigm) and 100 units/mL penicillin–streptomycin (Gibco) at a final concentration of 220,000 cells/mL and dispensed into white 96-well plates at 90 μL/well. Subsequent transfections and screens were carried using an Agilent Bravo Automated Liquid Handling Platform. First, the 96-well HiBiT DNA arrays were diluted 25-fold in Opti-MEM (without serum or phenol red) to a final concentration of 0.0004 μg/μL and 20 μL of the diluted DNAs were transferred into new 96-well plates. Next, promoterless carrier DNA (1 μg/μL) was diluted 25-fold (0.04 μg/μL) and then dispensed into the diluted arrays at 20 μL/well. Following brief mixing, Viafect transfection reagent (Promega) diluted 16-fold into Opti-MEM was dispensed into the plates at 40 μL/well. After mixing by pipetting, plates were incubated for 10 min on the pipetting station deck. The DNA-transfection reagent complexes were then added to plates containing cells. To facilitate the screen, 10 μL of DNA-transfection reagent complexes were added in duplicates to the top 4 and bottom 4 rows, resulting in two identical 48-well arrays per plate. Plates with transfected cells were incubated for 18–20 h at 37 °C/5% CO2. A screen of each tracer across the entire library using two different concentrations requires duplicate plates of transfected cells. Depending on the number of tracers being screened, transfections can be scaled up using the same ratios. The next day, for each tracer, four 20× screening solutions in tracer dilution buffer (Promega) were prepared: two duplicates at final concentration of 20 μM and two duplicates at a final concentration of 2 μM. A competing unmodified compound was added to one of each duplicate at a final concentration of 400 μM. The four resulting solutions were diluted 4-fold in Opti-MEM without serum or phenol red to generate 5× solutions (5 µM and 0.5 µM tracer +/− 100 μM competing compound). To screen the library, a BioTek MultiFlo FX liquid dispenser was used to dispense 22.5 µL of tracer solution to the top 4 rows and 22.5 µL tracer + competing compound solution to the 4 bottom rows. Plates were briefly mixed on an orbital shaker and incubated for 1.5 h at room temperature. […]

Row | Compound | NanoBRET Fold Response (C3AR1, tracer 0.1μM) | NanoBRET Fold Response (C3AR1, tracer 1μM) | further results
1 | CCOC(=O)c1cc(C#N)c(N2CCC(C(=O)NS(=O)(=O)Cc3ccccc3/C=C/C(=O)NCCNC(=O)CCc3ccc4n3[B-](F)(F)[N+]3=C(c5ccc[nH]5)C=CC3=C4)CC2)nc1C [AZD1283-1-NB590] |  |  | NanoBRET Fold Response (C3AR1, 0.1μM): 1.10; NanoBRET Fold Response (C3AR1, 1μM): 1.09
2 | N#CN=C(NCCCOc1cccc(CN2CCCCC2)c1)NCCNC(=O)CCOCCOCCOCCOCCNC(=O)CCc1ccc2n1[B-](F)(F)[N+]1=C(c3ccc[nH]3)C=CC1=C2 [Aminopotentidine-2-NB590] | 0.99 | 1.04 | 
3 | CN(C)CCC=C1c2ccccc2CCc2ccc(C(=O)NCCNC(=O)CCOCCOCCOCCOCCNC(=O)CCc3ccc4n3[B-](F)(F)[N+]3=C(c5ccc[nH]5)C=CC3=C4)cc21 [Amitriptyline-a-2-NB590] |  |  | NanoBRET Fold Response (tracer at 0.1μM): 0.99; NanoBRET Fold Response (tracer at 1μM): 1.01
4 | CN(C)CCC=C1c2ccccc2CCc2ccc(C(=O)NCCNC(=O)CCOCCOCCOCCOCCNC(=O)CCc3ccc4n3[B-](F)(F)[N+]3=C(c5ccc[nH]5)C=CC3=C4)cc21 [Amitriptyline-b-2-NB590] |  |  | NanoBRET Fold Response (tracer at 0.1μM, listed as amitriptyline-b-2-NB590): 1.19; NanoBRET Fold Response (tracer at 1μM): 1.00
5 | CN(CCC=C1c2ccccc2CCc2ccccc21)C(=O)CCOCCOCCOCCOCCNC(=O)CCc1ccc2n1[B-](F)(F)[N+]1=C(c3ccc[nH]3)C=CC1=C2 [Amitriptyline-e-2-NB590] |  |  | NanoBRET Fold Response (tracer at 1μM): 1.02
6 | COc1ccc2c(n1)c(CCNC(C)=O)cn2CCNC(=O)CCc1ccc2n1[B-](F)(F)[N+]1=C(c3ccc[nH]3)C=CC1=C2 [Azamelatonin-1-NB590] |  |  | NanoBRET Fold Response (0.1μM tracer): 0.88; NanoBRET Fold Response (1μM tracer): 0.98
7 | COc1ccc2[nH]c(-c3ccc(CNC(=O)CCOCCOCCOCCOCCNC(=O)CCc4ccc5n4[B-](F)(F)[N+]4=C(c6ccc[nH]6)C=CC4=C5)cc3)c(CCNC(C)=O)c2n1 [AzomelatoninICO9-2-NB590] |  |  | NanoBRET Fold Response (0.1μM tracer): 0.78; NanoBRET Fold Response (1μM tracer): 0.87
8 | O=C(CCOCCOCCOCCOCCNC(=O)CCc1ccc2n1[B-](F)(F)[N+]1=C(c3ccc[nH]3)C=CC1=C2)NCCCN1CCN(C2=Nc3cc(Cl)ccc3Nc3ccccc32)CC1 [Clozapine-a-2-NB590] |  |  | NanoBRET Fold Response (C3AR1, 0.1μM tracer): 1.18; NanoBRET Fold Response (C3AR1, 1μM tracer): 1.21
9 | CN1CCN(C2=Nc3cc(Cl)ccc3Nc3ccc(CNC(=O)CCOCCOCCOCCOCCNC(=O)CCc4ccc5n4[B-](F)(F)[N+]4=C(c6ccc[nH]6)C=CC4=C5)cc32)CC1 [Clozapine-b-2-NB590] |  |  | NanoBRET Fold Response (C3AR1, 0.1μM tracer): 0.99; NanoBRET Fold Response (C3AR1, 1μM tracer): 1.02
10 | CN1CCN(C2=Nc3cc(Cl)ccc3N(CC(=O)NCCOCCOCCOCCOCCNC(=O)CCc3ccc4n3[B-](F)(F)[N+]3=C(c5ccc[nH]5)C=CC3=C4)c3ccccc32)CC1 [Clozapine-c-2-NB590] |  |  | NanoBRET Fold Response (C3AR1, 0.1μM tracer): 0.99; NanoBRET Fold Response (C3AR1, 1μM tracer): 1.00
11 | O=C(CCOCCOCCOCCOCCNC(=O)CCc1ccc2n1[B-](F)(F)[N+]1=C(c3ccc[nH]3)C=CC1=C2)NCCCN1CCN(C2=Nc3ccccc3Oc3ccc(Cl)cc32)CC1 [Loxapine-a-2-NB590] | 0.97 | 1.08 | 
12 | COc1ccccc1N1CCN(CCCCN2C(=O)c3ccc(CNC(=O)CCOCCOCCOCCOCCNC(=O)CCc4ccc5n4[B-](F)(F)[N+]4=C(c6ccc[nH]6)C=CC4=C5)cc3C2=O)CC1 [NAN-190-2-NB590] | 1.03 | 0.96 | 
13 | COc1ccccc1N1CCN(CCCCN2C(=O)c3ccc(CNC(=O)CCOCCNC(=O)c4ccc(CNC(=O)CCc5ccc6n5[B-](F)(F)[N+]5=C(c7ccc[nH]7)C=CC5=C6)cc4)cc3C2=O)CC1 [NAN-190-3-NB590] | 0.90 | 0.93 | 
14 | O=C(CCc1ccc2n1[B-](F)(F)[N+]1=C(c3ccc[nH]3)C=CC1=C2)NCc1ccc(C(=O)NCCOCCC(=O)N[C@@H]2CC[C@@]3(O)[C@H]4Cc5ccc(O)c6c5[C@@]3(CCN4CC3CC3)[C@H]2O6)cc1 [Naltrexone-3-NB590] | 0.99 | 1.02 | 
15 | Cc1cc2c(s1)Nc1ccccc1N=C2N1CCN(CCCNC(=O)CCOCCOCCOCCOCCNC(=O)CCc2ccc3n2[B-](F)(F)[N+]2=C(c4ccc[nH]4)C=CC2=C3)CC1 [Olanzapine-a-2-NB590] | 1.01 | 1.01 | 
16 | O=C(CCc1ccc2n1[B-](F)(F)[N+]1=C(c3ccc[nH]3)C=CC1=C2)NCc1ccc(C(=O)NCCOCCOCCNCC(O)COc2cccc3ccccc23)cc1 (centres unmarked) [Propranolol-3-NB590] |  |  | NanoBRET Fold Response (C3AR1, 0.1μM): 1.05; NanoBRET Fold Response (C3AR1, 1μM): 1.07
17 | O=C(CCc1ccc2n1[B-](F)(F)[N+]1=C(c3ccc[nH]3)C=CC1=C2)NCCOCCOCCNC(=O)OCCOCCN1CCN(C2=Nc3ccccc3Sc3ccccc32)CC1 [Quetiapine-a-2-NB590] | 0.86 | 1.02 | 
18 | Cc1nc2n(c(=O)c1CCN1CCC(c3noc4cc(F)ccc34)CC1)CCCC2OC(=O)NCCOCCOCCOCCOCCNC(=O)CCc1ccc2n1[B-](F)(F)[N+]1=C(c3ccc[nH]3)C=CC1=C2 (centres unmarked) [Risperidone-2-NB590] | 0.93 | 0.98 | 
19 | CC(C)N(CC[C@H](c1ccccc1)c1cc(CCNC(=O)CCOCCOCCOCCOCCNC(=O)CCc2ccc3n2[B-](F)(F)[N+]2=C(c4ccc[nH]4)C=CC2=C3)ccc1O)C(C)C [Tolterodine-2-NB590] | 1.04 | 1.01 | 
20 | CC(C)N(CC[C@H](c1ccccc1)c1cc(CCNC(=O)c2ccc(CNC(=O)CCc3ccc4n3[B-](F)(F)[N+]3=C(c5ccc[nH]5)C=CC3=C4)cc2)ccc1O)C(C)C [Tolterodine-BZ-NB590] | 1.00 | 0.99 | 
21 | CCCn1c(=O)c2[nH]c(-c3ccc(OCC(=O)NCCNC(=O)CCOCCNC(=O)c4ccc(CNC(=O)CCc5ccc6n5[B-](F)(F)[N+]5=C(c7ccc[nH]7)C=CC5=C6)cc4)cc3)nc2n(CCC)c1=O [XAC-3-NB590] | 1.15 | 0.96 | 
